Holding throughout (test): mass response relative to vehicle control (EMD distance of treated vs reference mass distribution minus control baseline) (% of mean reference cell mass); higher = larger drug-induced change in single-cell mass distribution (stronger response)
One test concerns H2228. The protocol: (§1)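 Cancer cell lines were treated in vitro with drugs at the listed doses (about 24 h; 0.25% DMSO vehicle). Single-cell buoyant mass was measured on suspended microchannel resonator instruments with CNN image curation, 2500 cells per condition. Mass response is the Earth Mover's Distance to vehicle-treated reference cells as % of mean reference mass.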
Another test deals with HT-29. As for the experimental part:
as §1

The test system of the next test is PA-TU-8902. As for the experimental part: as §1
A further test concerns H929. The protocol:
as §1

A further test deals with MDA-MB-361. The protocol: as §1
For another test, the system named is A549. As for the experimental part: as §1
A further test deals with MV-4-11. As for the experimental part:
as §1

The next test concerns H1666. As for the experimental part:
as §1

A further test deals with KMS-12-PE. The protocol:
as §1

Counter-ions that a name gives are not always drawn. ± gives the uncertainty stated by the source.

As to `Cc1cc(Nc2ncc(Cl)c(Nc3ccccc3S(=O)(=O)C(C)C)n2)c(OC(C)C)cc1C1CCNCC1` [Ceritinib], the mass response stood at 2.19 ± 0.97 in the test with H2228 (0.01 µM), 25.7 ± 7.5 in the test with H2228 (0.1 µM), 27.4 ± 6.2 in the test with H2228 (1 µM) and 61 ± 1 in the test with H2228 (10 µM).
For `CCCS(=O)(=O)Nc1ccc(F)c(C(=O)c2c[nH]c3ncc(-c4ccc(Cl)cc4)cc23)c1F` [Vemurafenib], the mass response in the test on HT-29 (0.01 µM) is -0.111 ± 1.9; with HT-29 (0.1 µM) it was 2.67 ± 0.19; in the test on HT-29 (1 µM) it was 16.5 ± 2.6; in the test on HT-29 (10 µM), 24.3 ± 2.1.
For the compound `CO[C@H]1C[C@@H]2CC[C@@H](C)[C@@](O)(O2)C(=O)C(=O)N2CCCC[C@H]2C(=O)O[C@H]([C@H](C)C[C@@H]2CC[C@@H](OCCO)[C@H](OC)C2)CC(=O)[C@H](C)/C=C(\C)[C@@H](O)[C@@H](OC)C(=O)[C@H](C)C[C@H](C)/C=C/C=C/C=C/1C` [Everolimus], the mass response was 8.53 ± 1.9 in the test on PA-TU-8902 (0.5 µM), 9.89 ± 5.3 with PA-TU-8902 (5 µM), 8.18 ± 4 with PA-TU-8902 (20 µM) and 16.6 ± 7 with PA-TU-8902 (50 µM).
For the compound `CC(C)C[C@H](NC(=O)[C@H](Cc1ccccc1)NC(=O)c1cnccn1)B(O)O` [Bortezomib], the mass response is -0.979 ± 1.1 in the test with H929 (0.001 µM), 24.1 ± 2.9 in the test with H929 (0.005 µM), 34.2 ± 4.2 in the test on H929 (0.025 µM) and 33.7 ± 4.1 in the test with H929 (0.05 µM).
In the case of `COc1cccc2c1C(=O)c1c(O)c3c(c(O)c1C2=O)C[C@@](O)(C(=O)CO)C[C@@H]3O[C@H]1C[C@H](N)[C@@H](O)[C@H](C)O1` [Epirubicin], the mass response came out at 10.2 ± 1.1 with MDA-MB-361 (0.15 µM), 10.7 ± 0.92 in the test on MDA-MB-361 (0.625 µM), 8.33 ± 2.5 with MDA-MB-361 (2.5 µM) and 13.1 ± 3.1 in the test on MDA-MB-361 (10 µM).
With `CC(C)(C)c1nc(-c2cccc(NS(=O)(=O)c3c(F)cccc3F)c2F)c(-c2ccnc(N)n2)s1` [Dabrafenib], the mass response with HT-29 (0.01 µM) is 10.7 ± 9.3; in the test on HT-29 (0.1 µM), 19.1 ± 5.2; in the test with HT-29 (1 µM), 24.3 ± 3.3; in the test with HT-29 (10 µM), 16.9 ± 6.3.
Regarding `O=C(O)C(=O)O.[NH-][C@@H]1CCCC[C@H]1[NH-].[Pt+2]` [Oxaliplatin], the mass response stood at 5.04 ± 2.9 in the test with PA-TU-8902 (0.5 µM), 1.26 ± 5 with PA-TU-8902 (5 µM), 27.3 ± 9.2 with PA-TU-8902 (25 µM) and 45.7 ± 3.4 with PA-TU-8902 (50 µM).
Regarding `Cc1nc(NC(=O)N2CCC[C@H]2C(N)=O)sc1-c1ccnc(C(C)(C)C(F)(F)F)c1` [Alpelisib], the mass response was found to be 7.91 ± 1.6 in the test on MDA-MB-361 (0.05 µM), 16.4 ± 0.24 in the test with MDA-MB-361 (0.5 µM), 39.9 ± 5.9 with MDA-MB-361 (5 µM) and 62.6 ± 1.8 in the test on MDA-MB-361 (50 µM).
Regarding `CN(C)C(=O)c1cc2cnc(Nc3ccc(N4CCNCC4)cn3)nc2n1C1CCCC1` [Ribociclib], the mass response is 2.31 ± 0.72 with H929 (0.1 µM), 0.00401 ± 0.89 in the test on H929 (1 µM), 1.33 ± 1.2 in the test on H929 (10 µM) and 14.2 ± 3.9 in the test on H929 (50 µM).
As for `O=C(c1cc(Cc2n[nH]c(=O)c3ccccc23)ccc1F)N1CCN(C(=O)C2CC2)CC1` [Olaparib], the mass response in the test on MDA-MB-361 (0.1 µM) came out at 1.31 ± 3.8; in the test with MDA-MB-361 (1 µM), 1.01 ± 3.2; in the test on MDA-MB-361 (10 µM) it was 17.9 ± 9.6; in the test with MDA-MB-361 (0.0001 M), 25 ± 4.
For `O=c1[nH]cc(F)c(=O)[nH]1` [Fluorouracil], the mass response in the test with PA-TU-8902 (25 µM) is -2.58 ± 0.15; in the test with PA-TU-8902 (50 µM) it was 1.92 ± 7; in the test on PA-TU-8902 (0.0001 M), 8.61 ± 5.8; in the test on PA-TU-8902 (0.00025 M) it was 30.2 ± 2.5.
Regarding `Nc1ccn([C@@H]2O[C@H](CO)[C@@H](O)C2(F)F)c(=O)n1` [Gemcitabine], the mass response in the test on PA-TU-8902 (0.002 µM) turned out to be 11.2 ± 4.4; in the test with PA-TU-8902 (0.02 µM), 7.94 ± 0.91; in the test on PA-TU-8902 (0.2 µM), 5.91 ± 0.96; in the test on PA-TU-8902 (2 µM), 15.9 ± 3.
With `CCc1cc2c(cc1N1CCC(N3CCOCC3)CC1)C(C)(C)c1[nH]c3cc(C#N)ccc3c1C2=O` [Alectinib], the mass response amounted to 3.04 in the test on A549 (0.1 µM), 0.678 with A549 (0.5 µM), 3.27 with A549 (1 µM) and 24.8 with A549 (10 µM).
For `Nc1ccn([C@@H]2O[C@H](CO)[C@@H](O)[C@@H]2O)c(=O)n1` [Cytarabine], the mass response is -1.03 ± 0.38 in the test with MV-4-11 (0.001 µM), 2.01 ± 0.69 in the test on MV-4-11 (0.01 µM), 15 ± 1.3 in the test on MV-4-11 (0.1 µM) and 22.9 ± 0.31 with MV-4-11 (1 µM).
For `COC(=O)N[C@@H](C)CNc1nccc(-c2cn(C(C)C)nc2-c2cc(Cl)cc(NS(C)(=O)=O)c2F)n1` [Encorafenib], the mass response is 1.22 ± 0.73 with H1666 (0.01 µM), -0.00481 ± 0.44 in the test on H1666 (0.1 µM), 11.9 ± 4.1 with H1666 (1 µM) and 20.6 ± 3.6 in the test with H1666 (10 µM).
Take `CCC1=C[C@@H]2CN(C1)Cc1c([nH]c3ccccc13)[C@@](C(=O)OC)(c1cc3c(cc1OC)N(C)[C@H]1[C@@](O)(C(=O)OC)[C@H](OC(C)=O)[C@]4(CC)C=CCN5CC[C@]31[C@@H]54)C2` [Vinorelbine Tartrate]: the mass response with MDA-MB-361 (0.002 µM) is 0.302 ± 2.8; with MDA-MB-361 (0.02 µM), 13 ± 0.57; with MDA-MB-361 (0.2 µM), 14.6 ± 1.1; in the test on MDA-MB-361 (2 µM), 13.1 ± 1.9.
Consider `COc1cc2nccc(Oc3ccc(NC(=O)C4(C(=O)Nc5ccc(F)cc5)CC4)cc3)c2cc1OC` [Cabozantinib], for which the mass response with H2228 (0.01 µM) is 0.815 ± 0.96; in the test on H2228 (0.1 µM) it was 1.67 ± 0.69; in the test on H2228 (1 µM) it was -1.71 ± 0.46; in the test with H2228 (10 µM), 15.5 ± 1.
In the case of `C[C@@H](Oc1cc(-c2cnn(C3CCNCC3)c2)cnc1N)c1c(Cl)ccc(F)c1Cl` [Crizotinib], the mass response in the test with A549 (0.01 µM) was -1.1 ± 0.55; in the test on A549 (0.1 µM) it was -1.44 ± 0.16; with A549 (1 µM), 6.6 ± 1.6; with A549 (10 µM), 12.1 ± 0.61.
Take `CNC(=O)c1ccc(-c2cnc3ncc(Cc4ccc5ncccc5c4)n3n2)cc1F` [Capmatinib]: the mass response in the test with HT-29 (0.01 µM) stood at 1.15 ± 0.93; in the test with HT-29 (0.1 µM), 1.02 ± 2.5; in the test with HT-29 (1 µM) it was 3.42 ± 3; in the test with HT-29 (10 µM), 12.2 ± 4.3.
Regarding `CS(=O)(=O)CCNCc1ccc(-c2ccc3ncnc(Nc4ccc(OCc5cccc(F)c5)c(Cl)c4)c3c2)o1` [Lapatinib], the mass response in the test with MDA-MB-361 (0.1 µM) worked out at 0.147 ± 0.5; with MDA-MB-361 (1 µM) it was 6.42 ± 1.7; in the test on MDA-MB-361 (10 µM), 19.6 ± 1.1; in the test with MDA-MB-361 (0.0001 M), 19.5 ± 2.4.
In the case of `CC1(C)CCC(CN2CCN(c3ccc(C(=O)NS(=O)(=O)c4ccc(NCC5CCOCC5)c([N+](=O)[O-])c4)c(Oc4cnc5[nH]ccc5c4)c3)CC2)=C(c2ccc(Cl)cc2)C1` [Venetoclax], the mass response in the test with KMS-12-PE (0.005 µM) worked out at 0.784 ± 4.6; with KMS-12-PE (0.05 µM) it was 22.2 ± 0.87; in the test with KMS-12-PE (0.5 µM), 35.5 ± 0.37; in the test with KMS-12-PE (5 µM) it was 39.9 ± 4.1.
`CCc1c2c(nc3ccc(O)cc13)-c1cc3c(c(=O)n1C2)COC(=O)[C@]3(O)CC` [SN-38]: the mass response in the test with HT-29 (0.01 µM) was 15.5 ± 0.51; with HT-29 (0.1 µM), 11.1 ± 2.3; with HT-29 (1 µM), 10.6 ± 0.61; in the test with HT-29 (10 µM), 18 ± 3.
As to `CCN1CCN(Cc2ccc(Nc3ncc(F)c(-c4cc(F)c5nc(C)n(C(C)C)c5c4)n3)nc2)CC1` [Abemaciclib], the mass response in the test with H929 (0.05 µM) worked out at 13.7 ± 3.8; in the test with H929 (0.5 µM) it was 10.7 ± 3.7; in the test on H929 (5 µM), 22.1 ± 2.2; with H929 (20 µM), 29.6 ± 1.8.
Turning to `CC(=O)Nc1cccc(-n2c(=O)n(C3CC3)c(=O)c3c(Nc4ccc(I)cc4F)n(C)c(=O)c(C)c32)c1` [Trametinib], the mass response with HT-29 (0.01 µM) worked out at 26.9 ± 6.7; in the test with HT-29 (0.1 µM), 27.1 ± 3.4; in the test on HT-29 (1 µM), 23.5 ± 0.46; in the test with HT-29 (10 µM) it was 24.4 ± 0.46.
For `N.N.[Cl][Pt][Cl]` [Cisplatin], the mass response was 3.9 ± 9.3 in the test on MDA-MB-361 (10 µM), 2.2 ± 2.3 in the test with MDA-MB-361 (20 µM), 4.96 ± 1.6 in the test with MDA-MB-361 (50 µM) and 19.4 ± 2.7 with MDA-MB-361 (0.0001 M).

These data come from the supplement of paper PMC9701192.
